Results taken from patent publication US11033535B2, “Oxadiazoles and thiadiazoles as TGF-β inhibitors” (Southern Research Institute, priority 2017, dated 2021).

Legend:
[1] = system: BLM induced lung fibrosis; test: BLM induced unilateral lung fibrosis model; type: in vivo, SD rats; details: 10 mg/kg/d ip (n = 6), day 77
[2] = system: BLM induced lung fibrosis; test: BLM induced unilateral lung fibrosis model; type: in vivo, SD rats; design: left lung bronchial and arteriole damages (score), In the fibrosis core (n = 6) / left lung bronchial and arteriole damages (score), In the border of fibrosis (n = 6): scale not given here; details: for body weight, Changes in the ratio (%) / body weight: 10 mg/kg/d ip (n = 6); for body weight: in g (unit assumed)
Method: Species and quality level: SD rats, SPF grade; Gender and number: male, 12; Purchasing body weight range: 260-280 g; Company Certificate No.: SCXX (zhe) 2018-0001, Zhejiang Vital River Laboratory Animal Technology Co., Ltd.
Model Establishment: This study was carried out in strict accordance with the SOP institutional guidelines for the care and use of laboratory animals. Rats were anesthetized by intraperitoneal injection of pentobarbital sodium at dose of 50 mg/kg. Then rat neck skin was disinfected and opened in layers. The trachea was exposed carefully. Bleomycin (BLM) was directly injected into left main bronchus at a dose of 3 mg/kg body weight in volume of 1.0 ml/kg via a cannula. After closing the trachea and skin in layers the animal was moved on an electric heat pad at 37° C. to wait waking up from anesthesia before returning to holding cages with free access to water and diet.
Rats were assigned into two groups: Model (Group-1, n=6), CPD-X (Group-2, 10 mg/kg/d, n=6) (Table 13).
a Test article, CPD-X was designed as an intraperitoneal injection once a day starting from day-8 of modeling for 14 days (Table 13). The saline as a vehicle for model group via a ip injection once a day for 14 days.
One day after the last dosing all animals were euthanized according to the standard SOP at KCl. After confirming the animal death the left lung BALF was collected according the standard SOP at KCl. The BALF was frozen in liquid nitrogen and stored at −80° C. The left lungs then were perfused with equal volume of 10% formaldehyde solution (3 mL for each lung).
Lung pathology was processed after lung fixation. All animal hearts were collected at same time, weighted, and fixed in 10% formaldehyde solution for histology examination.
The whole left lung was dehydrated and wax embedded following KCl pathology SOP, then sectioned at […] in thickness. HE and Masson Trichrome staining were processed following KCl pathology standard staining SOPs, whole slides were then scanned by Hamamatsu NanoZoomer Digital Pathology S210 slide scanner after staining. Bronchiole and pulmonary arteriole damage and inflammatory cell infiltration in fibrosis core and fibrotic board area were scored with H&E stained slides (Table 14 and Table 15, FIG. 8), for which 5 different areas were selected in each lung slide. BLM induced left lung injury area and Ashcraft scoring for fibrosis were evaluated with Masson Trichrome stained slides (Table 16 and FIG. 9), for which 10 different areas were selected in each lung slide.
The animal hearts were dehydrated and wax embedded following KCl pathology SOP, then sectioned at […] in thickness. HE staining was processed following KCl pathology standard staining SOPs, whole slides were then scanned by Hamamatsu NanoZoomer Digital Pathology S210 slide scanner after staining. The thickness of left ventricle wall (LV), septum and right ventricle wall (RV) were measured at five different points and calculated the average thickness of LV, septum and RV.
a Statistical analysis was performed using Graphpad prism 6.0 software. Descriptive results were expressed as mean±sem or mean±sd. Statistical comparisons were performed using t-test, two-way ANOVA analysis. The p value <0.05 was considered as statistically significant.

[3] = 10 mg/kg ip QD 14 days from day-8, p < 0.05 vs. model

CC(=O)NC(Cc1ccc(CN)cc1)c1nnc(-c2cccc(OC(F)(F)F)c2)s1 (stereo not drawn) [CPD-X]
body weight, Changes in the ratio (%) [1]: 19.4 ± 5.4% | body weight ([1]; in g (unit assumed)): 341.6 ± 18.8 | body weight recovery vs. model group [2]: significant difference in body recovery | fibrosis by Ashcraft scoring [2]: significant reduction in fibrosis | share of fibrosis score ≤3 [2]: about 80% | left lung bronchial and arteriole damages (score), In the fibrosis core (n = 6) ([2]; 10 mg/kg ip QD 14 days from day-8, H&E, p < 0.001 vs. model): 6.23 ± 0.67 | left lung bronchial and arteriole damages (score), In the border of fibrosis (n = 6) ([2]; 10 mg/kg ip QD 14 days from day-8, H&E, p < 0.01 vs. model): 4.8 ± 0.54 | Lang damage area (%) ([2]; 10 mg/kg ip QD 14 days from day-8, Masson Trichrome, left lung): 70.69 ± 10.66% | Ashcraft fibrosis score ([2]; 10 mg/kg ip QD 14 days from day-8, Masson Trichrome, p < 0.01 vs. model): 2.55 ± 0.29 | % of fibrosis score (≤3) [2, 3]: 90 ± 10.95 % | % of fibrosis score (≥4) [2, 3]: 10 ± 10.95 % | body weight, Changes in the ratio (%) ([2]; day 0): 0% | body weight ([2]; day 0): 286.0 ± 6.1 | body weight, Changes in the ratio (%) ([2]; day 2): −9.6 ± 3.6% | body weight ([2]; day 2): 258.7 ± 13.4 | body weight, Changes in the ratio (%) ([2]; day 5): −8.3 ± 6.7% | body weight ([2]; day 5): 262.4 ± 22.6 | body weight, Changes in the ratio (%) ([2]; day 7): −4.4 ± 7.6% | body weight ([2]; day 7): 273.6 ± 24.9 | body weight, Changes in the ratio (%) ([2]; day 9): −0.8 ± 7.5% | body weight ([2]; day 9): 283.9 ± 24.5 | body weight, Changes in the ratio (%) ([2]; day 11): 2.8 ± 7.0% | body weight ([2]; day 11): 294.1 ± 23.5 | body weight, Changes in the ratio (%) ([2]; day 13): 5.5 ± 6.4% | body weight ([2]; day 13): 302.0 ± 22.0 | body weight, Changes in the ratio (%) ([2]; day 15): 8.2 ± 6.1% | body weight ([2]; day 15): 309.0 ± 20.4 | body weight, Changes in the ratio (%) ([2]; day 17): 13.7 ± 6.4% | body weight ([2]; day 17): 325.3 ± 21.2 | body weight, Changes in the ratio (%) ([2]; day 19): 14.4 ± 5.9% | body weight ([2]; day 19): 327.3 ± 20.7 | body weight, Changes in the ratio (%) ([2]; day 21): 18.4 ± 5.3% | body weight ([2]; day 21): 338.9 ± 19.4 | therapeutic effect (summary) ([2]; ip from day-8 of modeling for 14 days): significant improvement in bronchial and arteriole damage and alveolar fibrosis | right ventricle wall thickness ([2]; no statistic difference as compared to model group): slightly limited the right ventricle wall thickness | bronchial and arteriole damages in fibrotic core and border of fibrosis ([2]; p<0.001): significant therapeutic effect on reduction of bronchial and arteriole damages
